# Measurements taken from patent US8937091B2 (Japan Science and Technology Agency, priority 2009, dated 2015).
# Tests used:
# [1] = system: IICR (IP3 induced calcium release) in CHO cells; assay: Assay of IICR (IP3 induced calcium release)-inhibiting action; assay type: cell-based, Chinese hamster; details: Cricetulus griseus, CHO, CHO cells, 10 μM ATP, read-out: IICR level (percentage of inhibition); for inhibition at 10 µM: test compound 10 μmol; for inhibition at 30 µM: test compound 30 μmol; for inhibition at 100 µM: test compound 100 μmol
# In short: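 CHO cell medium replaced with calcium-containing BSS; compound added 1 min later, then 10 μM ATP after a further 2 min. Percent inhibition of the ATP-evoked rise in intracellular calcium determined at each compound concentration.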
# [2] = system: SOCE (store operated calcium entry) in CHO cells; assay: Assay of SOCE (store operated calcium entry)-inhibiting action; assay type: cell-based, Chinese hamster; details: Cricetulus griseus, CHO, CHO cells, thapsigargin, read-out: SOCE level (percentage of inhibition); for inhibition at 10 µM: test compound 10 μmol; for inhibition at 30 µM: test compound 30 μmol; for inhibition at 100 µM: test compound 100 μmol
# In short: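 CHO cells in calcium-free BSS received compound, then 1 μM thapsigargin 2 min later to deplete stores; after 9 min, 2 mM calcium chloride (final) added. Percent inhibition of the rise in intracellular calcium determined at various compound concentrations.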
Structure (SMILES),inhibition at 10 µM [1] [%],inhibition at 30 µM [1] [%],inhibition at 100 µM [1] [%],inhibition at 10 µM [2] [%],inhibition at 30 µM [2] [%],inhibition at 100 µM [2] [%]
"O=C(CCN(CCO)Cc1ccccc1)c1ccc(I)s1 [Example 379, 2-(N-2-hydroxyethyl-N-benzyl)aminoethyl-5-iodo-2-thienylketone]",50,24,46,20,40,50
"O=C(CCNCc1ccccc1)c1ccc(Br)s1 [Example 382, 2-N-benzylaminoethyl-5-bromo-2-thienylketone]",0,10,50,0,10,20
"CCCCCCN(CCCCCC)CCC(=O)c1ccc(Br)s1 [Example 383, 2-(N,N-dihexyl)aminoethyl-5-bromo-2-thienylketone]",0,5,0,25,16,46
"CC(C)CN(CCC(=O)c1ccc(Br)s1)CC(C)C [Example 384, 2-(N,N-diisobutyl)aminoethyl-5-bromo-2-thienylketone]",0,35,70,0,10,100
"CCCCCCN(CCCCCC)CCC(=O)c1ccc(Cl)s1 [Example 385, 2-(N,N-dihexyl)aminoethyl-5-chloro-2-thienylketone]",0,14,0,0,95,53
"N[C@@H](CSSC[C@@H](C(=O)O)N(CCC(=O)c1ccc(Cl)s1)CCC(=O)c1ccc(Cl)s1)C(=O)O [Example 387, N,N-bis(2-(5-chloro-2-thiophenoyl)ethyl)cystine]",0,0,70,20,40,50
"NCCSSCCN(CCC(=O)c1ccc(I)cc1)CCC(=O)c1ccc(I)cc1 [Example 388, N,N-bis(4-iodobenzoylethyl)cystamine]",0,0,70,20,40,50
"CC(C)N(CCC(=O)c1ccc(I)s1)Cc1ccccc1 [Example 390, 2-(N-isopropyl-N-benzyl)aminoethyl-5-iodo-2-thienylketone]",0,0,70,20,40,50
"CC(C)N(CCC(=O)c1ccc(Br)s1)C(C)C [Example 395, 2-diisopropylaminoethyl-5-bromo-2-thienylketone]",14,67,83,20,40,50
"CC(C)N(CCC(=O)c1ccc(Cl)s1)C(C)C [Example 396, 2-diisopropylaminoethyl-5-chloro-2-thienylketone]",2,72,83,20,40,50
"CC(C)N(CCC(=O)c1ccncc1)C(C)C [Example 397, 2-diisopropylaminoethyl-4-pyridylketone]",0,0,10,20,40,50
N#Cc1ccc(C(=O)CCNCCSSCCNCCC(=O)c2ccc(C#N)cc2)cc1 [Example 398],1,44,80,20,40,50
"COC(=O)C(CSSCC(NCCC(=O)c1ccc(C#N)cc1)C(=O)OC)NCCC(=O)c1ccc(C#N)cc1 (stereo not drawn) [Example 399, N,N-bis(4-cyanobenzoylethyl)cystinemethylester]",0,0,70,20,40,50
COC(=O)C(CSSCC(NCCC(=O)c1nccs1)C(=O)OC)NCCC(=O)c1nccs1 (stereo not drawn) [Example 400],19,0,13,20,40,50
"COC(=O)C(CSSCC(NCCC(=O)c1ccco1)C(=O)OC)NCCC(=O)c1ccco1 (stereo not drawn) [Example 401, N,N-bis(2-furoylethyl)cystinemethylester]",31,1,57,20,40,50
"COC(=O)C(CSSCC(NCCC(=O)c1cnccn1)C(=O)OC)NCCC(=O)c1cnccn1 (stereo not drawn) [Example 402, N,N-bis(2-pyrazinoylethyl)cystinemethylester]",39,12,28,20,40,50
"COC(=O)C(CSSCC(NCCC(=O)c1ccc(C)s1)C(=O)OC)NCCC(=O)c1ccc(C)s1 (stereo not drawn) [Example 403, N,N-bis(2-(5-methyl-2-thiophenoyl)ethyl)cystinemethylester]",57,17,83,20,40,50
COC(=O)C(CSSCC(NCCC(=O)c1ccc2c(c1)Cc1ccccc1-2)C(=O)OC)NCCC(=O)c1ccc2c(c1)Cc1ccccc1-2 (stereo not drawn) [Example 404],54,84,94,20,40,50
"CC(C)(C)N(CCC(=O)c1ccc(I)s1)Cc1ccccc1 [Example 405, 2-(N-t-butyl-N-benzyl)aminoethyl-5-iodo-2-thienylketone]",78,73,35,20,40,50
"COC(=O)C(CSSCC(NCCC(=O)c1ccc(I)s1)C(=O)OC)NCCC(=O)c1ccc(I)s1 (stereo not drawn) [Example 406, N,N-bis(5-iodo-2-thiophenoylethyl)cystinemethylester]",49,43,62,20,40,50
"CC(C)(C)N(CCC(=O)c1sccc1Br)Cc1ccccc1 [Example 407, 2-(N-t-butyl-N-benzyl)aminoethyl-3-bromo-2-thienylketone]",89,83,77,20,40,50
"CC(C)(C)N(CCC(=O)c1ncccc1Br)Cc1ccccc1 [Example 408, 2-(N-t-butyl-N-benzyl)aminoethyl-3-bromo-2-pyridylketone]",76,83,77,20,40,50
"COC(=O)C(CSC)NCCC(=O)c1ccc(Br)s1 (stereo not drawn) [Example 409, N,N-bis(2-(5-bromo-2-thiophenoyl)ethyl)cystinemethylester]",26,76,81,20,40,50
O=C(CCNCCSSCCNCCC(=O)c1ccc(I)s1)c1ccc(I)s1 [Example 410],59,65,88,20,40,50
CCC(C)N(CCC(=O)c1ccc(I)s1)C(C)CC (stereo not drawn) [Example 411],76,80,82,20,40,50
CCC(C)N(CCC(=O)c1sccc1Br)C(C)CC (stereo not drawn) [Example 413],48,81,78,20,40,50
